Values quoted from earlier work in US10863741B2, “Herbicidal compositions” (HOMS, LLC, priority 2015, dated 2020).

Test system: male rats
Conditions: chronic exposure

For C=C(C)[C@H]1CC=C(C)CC1 [d-limonene], the Tumor incidence is listed as “significant incidence of renal tubular tumors”.
